This passage reports inhibition, Activity and IC50 results from ChEMBL document CHEMBL4622836, “Identification of an ethyl 5,6-dihydropyrazolo[1,5-c]quinazoline-1-carboxylate as a catalytic inhibitor of DNA gyrase” (Bioorg Med Chem, 2020).

One may read the IC50 as the concentration at which inhibition is half-maximal.

Assay [1] deals with T1, DNA gyrase (Escherichia coli) (UniProt P0AES6+P0AES4). The experiment in a line: Inhibition of Escherichia coli DNA gyrase super-coiling activity at 50 uM. It is filed as protein-complex assay.
The subject of another assay is DNA. Description: Displacement of thiazole orange from DNA (unknown origin) by fluorescence assay. It is filed as nucleic-acid assay.
The target in assay [2] is T1, DNA gyrase (Escherichia coli). The experiment in a line: Poison activity at Escherichia coli DNA gyrase assessed as stabilization of DNA cleavage complex by measuring linear plasmid DNA formation relative to control. The format is protein-complex assay.
Another assay addresses DNA gyrase (Escherichia coli, UniProt P0AES4+P0AES6). Description: Inhibition of Escherichia coli DNA gyrase assessed as supercoiling activity by fluorescence assay relative to control. It is filed as protein-complex assay.
The target of assay [3] is T1, DNA gyrase (Escherichia coli). The experiment in a line: Inhibition of Escherichia coli DNA gyrase super-coiling activity at 25uM. The format is protein-complex assay.
Another assay is filed under the species Bos taurus. Description: Binding affinity to calf thymus DNA by fluorescence-based DNA binding assay.

Calls of active or inactive are those of the source. The rule behind the calls is not given here. Bounds are passed on as bounds.

For `CCOC(=O)c1cnn2c(=O)n(CC)c3cc(N4CC[C@@H](CN)C4)c(F)cc3c12`, the inhibition result in assay [1] and in assay [3] was “Active” each time. Further, the outcome (in the assay on DNA; in assay [2]; in the assay listed under Bos taurus) was inactive. For the same molecule, the IC50 on DNA gyrase stood at 3.5 µM.

Turning to `COc1c(N2CC[C@@H](CN)C2)c(F)cc2c(=O)n(CCNC(=N)N)c(=O)n(C3CC3)c12`, at DNA gyrase, the IC50 was greater than 50 µM.

Take `N=C(N)NCCn1c(=O)c2cc(F)c(N3CC[C@@H](CN)C3)cc2n(C2CC2)c1=O`: the IC50 at DNA gyrase was greater than 50 µM.

With `Cc1c(N2CC[C@@H](CN)C2)c(F)cc2c(=O)n(CCNC(=N)N)c(=O)n(C3CC3)c12`, the inhibition result in assay [1] and in assay [3] was “Active” throughout. Further, in assay [2], the outcome was Active. Further, the IC50 on DNA gyrase stood at 11.5 µM.

Consider `Cc1c(N2CC[C@@H](CN)C2)c(F)cc2c(=O)n(N)c(=O)n(C3CC3)c12`, for which, in assay [2], the result was Active. The IC50 on DNA gyrase is 0.95 µM.

As to `NCCn1c(=O)c2cc(F)c(N3CC[C@@H](CN)C3)cc2n(C2CC2)c1=O`, the IC50 on DNA gyrase is greater than 50 µM.

On to `CCn1c(=O)n2nc(C(=O)O)cc2c2cc(F)c(N3CC[C@@H](CN)C3)cc21`, for which, at DNA gyrase, the IC50 is greater than 50 µM.

In the case of `COc1c(N2CC[C@@H](CN)C2)c(F)cc2c(=O)c(C(=O)O)cn(C3CC3)c12`, in assay [2], the result was Active. Further, the IC50 on DNA gyrase was determined as 0.12 µM.

For the molecule `CCOC(=O)c1cc2c3cc(F)c(N4CC[C@@H](CN)C4)cc3n(CC)c(=O)n2n1`, the IC50 on DNA gyrase was greater than 50 µM.

On to `Cc1c(N2CC[C@@H](CN)C2)c(F)cc2c(=O)n(CCN)c(=O)n(C3CC3)c12`, for which the inhibition result in assay [1] and in assay [3] was “Active” throughout. Besides, the outcome in assay [2] was Active. At DNA gyrase, the IC50 is 17.6 µM.

Regarding `COc1c(N2CC[C@@H](CN)C2)c(F)cc2c(=O)n(CCN)c(=O)n(C3CC3)c12`, the IC50 on DNA gyrase is greater than 50 µM.
